Measured values from PubChem BioAssay AID1963846 (Molecular Pharmacology Branch, DTP, NCI, 2024).

Test system: 454973-116-R2-J3-PDC complex spheroid viability
Experiment: Anticancer human tumor 454973-116-R2-J3-PDC patient-derived pancreatic carcinoma cell line growth inhibition [POLQ]
Details: for IC50: curve of first compound; for viability, T/C: stronger effect = lower value
How it was run: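 Three-cell-type spheroids modelling solid tumor plus stroma served as the readout system; POL inhibitors were tested individually and in combination, concentration ranges set by clinical Cmax where known.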

[1] = second compound 0.0316 µM, first compound 0.0316 µM
[2] = second compound 0.0316 µM, first compound 0.1 µM
[3] = second compound 0.0316 µM, first compound 0.316 µM
[4] = second compound 0.0316 µM, first compound 1 µM
[5] = second compound 0.0316 µM, first compound 3.16 µM
[6] = second compound 0.0316 µM, first compound 10 µM
[7] = second compound 0.1 µM, first compound 0.0316 µM
[8] = second compound 0.1 µM, first compound 0.1 µM
[9] = second compound 0.1 µM, first compound 0.316 µM
[10] = second compound 0.1 µM, first compound 1 µM
[11] = second compound 0.1 µM, first compound 3.16 µM
[12] = second compound 0.1 µM, first compound 10 µM
[13] = second compound 0.316 µM, first compound 0.0316 µM
[14] = second compound 0.316 µM, first compound 0.1 µM
[15] = second compound 0.316 µM, first compound 0.316 µM
[16] = second compound 0.316 µM, first compound 1 µM
[17] = second compound 0.316 µM, first compound 3.16 µM
[18] = second compound 0.316 µM, first compound 10 µM
[19] = second compound 1 µM, first compound 0.0316 µM
[20] = second compound 1 µM, first compound 0.1 µM
[21] = second compound 1 µM, first compound 0.316 µM
[22] = second compound 1 µM, first compound 1 µM
[23] = second compound 1 µM, first compound 3.16 µM
[24] = second compound 1 µM, first compound 10 µM
[25] = second compound 3.16 µM, first compound 0.0316 µM
[26] = second compound 3.16 µM, first compound 0.1 µM
[27] = second compound 3.16 µM, first compound 0.316 µM
[28] = second compound 3.16 µM, first compound 1 µM
[29] = second compound 3.16 µM, first compound 3.16 µM
[30] = second compound 3.16 µM, first compound 10 µM
[31] = second compound 10 µM, first compound 0.0316 µM
[32] = second compound 10 µM, first compound 0.1 µM
[33] = second compound 10 µM, first compound 0.316 µM
[34] = second compound 10 µM, first compound 1 µM
[35] = second compound 10 µM, first compound 3.16 µM
[36] = second compound 10 µM, first compound 10 µM
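Note: spheroids exposed to drugs for seven days before measurement.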
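Throughout, for viability, T/C: percent viability relative to DMSO vehicle control wells taken as 100%.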

## CC1COCCN1c1cc(-c2ccnn2C)c2ccnc(-c3ccn[nH]3)c2n1 (centres undefined) + Nc1ccc(C#CCN(C(=O)Cc2ncc(C(F)(F)F)cc2C(F)(F)F)c2ccc(F)cc2)nn1
Second compound 0.0316 µM
  IC50: 126 nM
Second compound 0.1 µM
  IC50: 117 nM
Second compound 0.316 µM
  IC50: 119 nM
Second compound 1 µM
  IC50: 109 nM
Second compound 3.16 µM
  IC50: 119 nM
Second compound 10 µM
  IC50: 90 nM
[1]
  viability, T/C: 83.6%
[2]
  viability, T/C: 57.6%
[3]
  viability, T/C: 19.8%
[4]
  viability, T/C: 11.3%
[5]
  viability, T/C: 14%
[6]
  viability, T/C: 14.1%
[7]
  viability, T/C: 80.3%
[8]
  viability, T/C: 54.6%
[9]
  viability, T/C: 20.1%
[10]
  viability, T/C: 13.5%
[11]
  viability, T/C: 11.2%
[12]
  viability, T/C: 14.6%
[13]
  viability, T/C: 91%
[14]
  viability, T/C: 55.6%
[15]
  viability, T/C: 19.1%
[16]
  viability, T/C: 9.76%
[17]
  viability, T/C: 12.6%
[18]
  viability, T/C: 14.6%
[19]
  viability, T/C: 90.2%
[20]
  viability, T/C: 52.7%
[21]
  viability, T/C: 16.8%
[22]
  viability, T/C: 11.3%
[23]
  viability, T/C: 13.6%
[24]
  viability, T/C: 14.5%
[25]
  viability, T/C: 88.7%
[26]
  viability, T/C: 55.6%
[27]
  viability, T/C: 18.2%
[28]
  viability, T/C: 11.3%
[29]
  viability, T/C: 9.64%
[30]
  viability, T/C: 11.8%
[31]
  viability, T/C: 92.5%
[32]
  viability, T/C: 45.7%
[33]
  viability, T/C: 17.5%
[34]
  viability, T/C: 10.5%
[35]
  viability, T/C: 10.2%
[36]
  viability, T/C: 13.4%

## CC1COCCN1c1cc(C2(S(C)(=N)=O)CC2)nc(-c2ccnc3[nH]ccc23)n1 (centres undefined) + Nc1ccc(C#CCN(C(=O)Cc2ncc(C(F)(F)F)cc2C(F)(F)F)c2ccc(F)cc2)nn1
Second compound 0.0316 µM
  IC50: 4990 nM
Second compound 0.1 µM
  IC50: 5250 nM
Second compound 0.316 µM
  IC50: 4650 nM
Second compound 1 µM
  IC50: 4270 nM
Second compound 3.16 µM
  IC50: 4310 nM
Second compound 10 µM
  IC50: 3670 nM
[1]
  viability, T/C: 115%
[2]
  viability, T/C: 104%
[3]
  viability, T/C: 112%
[4]
  viability, T/C: 100%
[5]
  viability, T/C: 68%
[6]
  viability, T/C: 22.5%
[7]
  viability, T/C: 99.5%
[8]
  viability, T/C: 109%
[9]
  viability, T/C: 104%
[10]
  viability, T/C: 97.5%
[11]
  viability, T/C: 70.3%
[12]
  viability, T/C: 24.3%
[13]
  viability, T/C: 109%
[14]
  viability, T/C: 122%
[15]
  viability, T/C: 104%
[16]
  viability, T/C: 95.2%
[17]
  viability, T/C: 64.8%
[18]
  viability, T/C: 20.9%
[19]
  viability, T/C: 110%
[20]
  viability, T/C: 111%
[21]
  viability, T/C: 109%
[22]
  viability, T/C: 109%
[23]
  viability, T/C: 61.6%
[24]
  viability, T/C: 17.3%
[25]
  viability, T/C: 116%
[26]
  viability, T/C: 106%
[27]
  viability, T/C: 108%
[28]
  viability, T/C: 105%
[29]
  viability, T/C: 59.9%
[30]
  viability, T/C: 23.1%
[31]
  viability, T/C: 122%
[32]
  viability, T/C: 114%
[33]
  viability, T/C: 113%
[34]
  viability, T/C: 111%
[35]
  viability, T/C: 55%
[36]
  viability, T/C: 15.5%
